Assay results from ChEMBL document CHEMBL1138608, “The discovery of potent, selective, and orally bioavailable PDE9 inhibitors as potential hypoglycemic agents” (Bioorg Med Chem Lett, 2009).
Each block holds one compound with its values, some of them ahead of it.

Key:
[1] = biological target: Dual specificity calcium/calmodulin-dependent 3',5'-cyclic nucleotide phosphodiesterase 1A (Homo sapiens, UniProt P54750); test: Inhibition of PDE1a
[2] = Inhibition of PDE11
[3] = system: Mus musculus; test: Free plasma concentration at terminal bleed in ob/ob mouse at 500 mg/kg, po administered by subchronic dosing for 4 days after 3 hrs of last dose
[4] = biological target: 3',5'-cyclic-AMP phosphodiesterase 7B (Homo sapiens, UniProt Q9NP56); test: Inhibition of PDE7b
[5] = biological target: Dual specificity calcium/calmodulin-dependent 3',5'-cyclic nucleotide phosphodiesterase 1C (Homo sapiens, UniProt Q14123); test: Inhibition of PDE1c
[6] = biological target: High affinity 3',5'-cyclic-AMP phosphodiesterase 7A (Homo sapiens, UniProt Q13946); test: Inhibition of PDE7a
High affinity 3',5'-cyclic-AMP phosphodiesterase 7A, sequence (Q13946 whole entry): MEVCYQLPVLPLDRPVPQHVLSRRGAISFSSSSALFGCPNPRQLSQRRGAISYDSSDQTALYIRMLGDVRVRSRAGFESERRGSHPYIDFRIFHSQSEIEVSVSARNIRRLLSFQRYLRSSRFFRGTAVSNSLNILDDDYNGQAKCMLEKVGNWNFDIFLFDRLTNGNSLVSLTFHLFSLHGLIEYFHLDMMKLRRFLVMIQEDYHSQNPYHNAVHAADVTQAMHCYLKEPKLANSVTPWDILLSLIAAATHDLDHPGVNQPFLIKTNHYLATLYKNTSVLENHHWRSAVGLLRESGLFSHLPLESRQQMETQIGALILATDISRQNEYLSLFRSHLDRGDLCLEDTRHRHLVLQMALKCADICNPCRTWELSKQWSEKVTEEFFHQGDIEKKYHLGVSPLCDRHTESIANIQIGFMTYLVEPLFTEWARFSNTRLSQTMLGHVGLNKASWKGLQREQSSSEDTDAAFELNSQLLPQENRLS

[7] = biological target: 3',5'-cyclic-AMP phosphodiesterase 4A (Homo sapiens, UniProt P27815); test: Inhibition of PDE4a
[8] = Inhibition of PDE2
[9] = biological target: High affinity cAMP-specific and IBMX-insensitive 3',5'-cyclic phosphodiesterase 8B (Homo sapiens, UniProt O95263); test: Inhibition of PDE8b
High affinity cAMP-specific and IBMX-insensitive 3',5'-cyclic phosphodiesterase 8B, sequence (O95263 whole entry): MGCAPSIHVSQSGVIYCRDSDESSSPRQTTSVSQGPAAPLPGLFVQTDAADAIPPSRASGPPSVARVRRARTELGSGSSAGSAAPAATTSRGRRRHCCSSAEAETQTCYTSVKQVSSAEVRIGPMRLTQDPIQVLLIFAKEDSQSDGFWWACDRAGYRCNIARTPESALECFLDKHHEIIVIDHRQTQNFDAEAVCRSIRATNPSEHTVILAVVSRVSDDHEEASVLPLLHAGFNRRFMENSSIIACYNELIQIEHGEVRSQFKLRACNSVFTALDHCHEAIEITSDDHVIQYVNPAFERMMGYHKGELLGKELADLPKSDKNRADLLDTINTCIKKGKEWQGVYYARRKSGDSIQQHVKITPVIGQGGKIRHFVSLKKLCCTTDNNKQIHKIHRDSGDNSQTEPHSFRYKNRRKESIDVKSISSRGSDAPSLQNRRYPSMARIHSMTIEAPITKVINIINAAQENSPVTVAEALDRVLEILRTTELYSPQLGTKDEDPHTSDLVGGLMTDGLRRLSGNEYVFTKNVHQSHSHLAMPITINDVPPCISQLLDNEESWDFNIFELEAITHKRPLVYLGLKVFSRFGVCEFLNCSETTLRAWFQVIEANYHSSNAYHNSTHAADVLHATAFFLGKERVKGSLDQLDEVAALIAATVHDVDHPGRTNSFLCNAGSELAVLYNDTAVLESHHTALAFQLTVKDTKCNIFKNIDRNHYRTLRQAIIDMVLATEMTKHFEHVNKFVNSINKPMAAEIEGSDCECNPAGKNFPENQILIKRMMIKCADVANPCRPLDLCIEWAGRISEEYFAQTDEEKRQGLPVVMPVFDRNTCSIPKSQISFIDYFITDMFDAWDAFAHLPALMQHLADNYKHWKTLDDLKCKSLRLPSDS

[10] = biological target: cGMP-inhibited 3',5'-cyclic phosphodiesterase 3A (Homo sapiens, UniProt Q14432); test: Inhibition of PDE3a
[11] = biological target: Dual specificity calcium/calmodulin-dependent 3',5'-cyclic nucleotide phosphodiesterase 1B (Homo sapiens, UniProt Q01064); test: Inhibition of PDE1b
Dual specificity calcium/calmodulin-dependent 3',5'-cyclic nucleotide phosphodiesterase 1B, sequence (Q01064 whole entry): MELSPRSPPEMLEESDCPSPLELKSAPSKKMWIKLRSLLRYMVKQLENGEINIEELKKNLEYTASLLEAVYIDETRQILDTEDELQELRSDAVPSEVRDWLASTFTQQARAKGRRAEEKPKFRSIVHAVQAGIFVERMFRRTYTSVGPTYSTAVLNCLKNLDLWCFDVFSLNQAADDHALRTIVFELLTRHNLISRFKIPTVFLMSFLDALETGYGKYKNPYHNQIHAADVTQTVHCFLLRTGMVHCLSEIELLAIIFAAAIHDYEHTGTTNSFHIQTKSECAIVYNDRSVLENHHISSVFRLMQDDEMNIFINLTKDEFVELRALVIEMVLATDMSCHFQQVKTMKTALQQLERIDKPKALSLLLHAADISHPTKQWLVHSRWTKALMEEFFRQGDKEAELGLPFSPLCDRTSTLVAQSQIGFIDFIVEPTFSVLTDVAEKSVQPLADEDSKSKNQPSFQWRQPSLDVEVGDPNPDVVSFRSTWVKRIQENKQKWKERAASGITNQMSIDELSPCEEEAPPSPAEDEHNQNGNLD

[12] = Inhibition of PDE6
[13] = Inhibition of PDE10
[14] = system: Mus musculus; test: Free plasma concentration at terminal bleed in ob/ob mouse at 250 mg/kg, po administered by subchronic dosing for 4 days after 3 hrs of last dose
[15] = Volume of distribution at steady state in rat; settings: in vivo
[16] = biological target: 3',5'-cyclic-AMP phosphodiesterase 4C (Homo sapiens, UniProt Q08493); test: Inhibition of PDE4c
3',5'-cyclic-AMP phosphodiesterase 4C, sequence (Q08493 whole entry): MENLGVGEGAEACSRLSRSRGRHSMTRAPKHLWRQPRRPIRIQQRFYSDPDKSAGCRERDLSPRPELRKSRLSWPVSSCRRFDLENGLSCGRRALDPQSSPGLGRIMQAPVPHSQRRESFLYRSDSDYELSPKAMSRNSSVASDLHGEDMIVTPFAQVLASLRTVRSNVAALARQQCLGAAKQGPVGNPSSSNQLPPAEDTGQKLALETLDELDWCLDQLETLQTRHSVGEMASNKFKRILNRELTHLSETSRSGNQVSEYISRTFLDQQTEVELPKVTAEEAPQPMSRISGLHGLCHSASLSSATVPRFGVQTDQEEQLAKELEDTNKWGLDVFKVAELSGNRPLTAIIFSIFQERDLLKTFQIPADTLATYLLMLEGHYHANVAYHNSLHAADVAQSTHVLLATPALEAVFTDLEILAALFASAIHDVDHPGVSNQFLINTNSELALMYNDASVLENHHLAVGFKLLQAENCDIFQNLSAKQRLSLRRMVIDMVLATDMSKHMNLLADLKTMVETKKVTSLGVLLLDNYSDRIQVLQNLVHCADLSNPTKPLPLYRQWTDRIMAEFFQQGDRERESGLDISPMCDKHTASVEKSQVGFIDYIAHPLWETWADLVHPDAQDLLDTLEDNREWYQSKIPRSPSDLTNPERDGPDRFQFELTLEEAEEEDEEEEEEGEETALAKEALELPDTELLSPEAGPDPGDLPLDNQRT

[17] = biological target: 3',5'-cyclic-AMP phosphodiesterase 4B (Homo sapiens, UniProt Q07343); test: Inhibition of PDE4b
3',5'-cyclic-AMP phosphodiesterase 4B, sequence (Q07343 whole entry): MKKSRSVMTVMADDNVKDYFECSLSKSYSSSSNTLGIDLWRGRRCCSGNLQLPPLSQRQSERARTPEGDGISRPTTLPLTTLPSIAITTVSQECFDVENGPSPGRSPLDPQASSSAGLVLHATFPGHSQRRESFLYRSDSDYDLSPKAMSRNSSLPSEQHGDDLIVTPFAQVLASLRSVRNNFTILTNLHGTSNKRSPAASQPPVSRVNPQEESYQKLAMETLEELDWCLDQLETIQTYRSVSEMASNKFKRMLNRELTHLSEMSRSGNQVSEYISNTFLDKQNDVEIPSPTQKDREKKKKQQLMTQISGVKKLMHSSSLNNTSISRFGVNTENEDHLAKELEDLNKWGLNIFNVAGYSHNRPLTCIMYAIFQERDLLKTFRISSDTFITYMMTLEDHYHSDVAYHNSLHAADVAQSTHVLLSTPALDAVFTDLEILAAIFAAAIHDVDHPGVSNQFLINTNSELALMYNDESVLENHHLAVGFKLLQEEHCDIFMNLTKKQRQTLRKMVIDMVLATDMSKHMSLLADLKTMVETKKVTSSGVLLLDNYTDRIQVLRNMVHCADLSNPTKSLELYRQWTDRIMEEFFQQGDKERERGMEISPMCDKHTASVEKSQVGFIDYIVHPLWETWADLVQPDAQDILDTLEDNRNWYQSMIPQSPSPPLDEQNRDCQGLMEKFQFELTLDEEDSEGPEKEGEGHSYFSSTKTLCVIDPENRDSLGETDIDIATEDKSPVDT

[18] = biological target: High affinity cAMP-specific and IBMX-insensitive 3',5'-cyclic phosphodiesterase 8A (Homo sapiens, UniProt O60658); test: Inhibition of PDE8a
[19] = biological target: cGMP-inhibited 3',5'-cyclic phosphodiesterase 3B (Homo sapiens, UniProt Q13370); test: Inhibition of PDE3b
[20] = Oral bioavailability in rat; settings: in vivo
[21] = biological target: cGMP-specific 3',5'-cyclic phosphodiesterase (Homo sapiens, UniProt O76074); test: Inhibition of PDE5
[22] = system: Mus musculus; test: Free plasma concentration at terminal bleed in ob/ob mouse at 100 mg/kg, po administered by subchronic dosing for 4 days after 3 hrs of last dose
[23] = in vivo; settings: rat
[24] = biological target: High affinity cGMP-specific 3',5'-cyclic phosphodiesterase 9A (Homo sapiens, UniProt O76083); test: Inhibition of human recombinant PDE9 expressed in SF9 cells by scintillation proximity assay
[25] = biological target: 3',5'-cyclic-AMP phosphodiesterase 4D (Homo sapiens, UniProt Q08499); test: Inhibition of PDE4d
3',5'-cyclic-AMP phosphodiesterase 4D, sequence (Q08499 whole entry): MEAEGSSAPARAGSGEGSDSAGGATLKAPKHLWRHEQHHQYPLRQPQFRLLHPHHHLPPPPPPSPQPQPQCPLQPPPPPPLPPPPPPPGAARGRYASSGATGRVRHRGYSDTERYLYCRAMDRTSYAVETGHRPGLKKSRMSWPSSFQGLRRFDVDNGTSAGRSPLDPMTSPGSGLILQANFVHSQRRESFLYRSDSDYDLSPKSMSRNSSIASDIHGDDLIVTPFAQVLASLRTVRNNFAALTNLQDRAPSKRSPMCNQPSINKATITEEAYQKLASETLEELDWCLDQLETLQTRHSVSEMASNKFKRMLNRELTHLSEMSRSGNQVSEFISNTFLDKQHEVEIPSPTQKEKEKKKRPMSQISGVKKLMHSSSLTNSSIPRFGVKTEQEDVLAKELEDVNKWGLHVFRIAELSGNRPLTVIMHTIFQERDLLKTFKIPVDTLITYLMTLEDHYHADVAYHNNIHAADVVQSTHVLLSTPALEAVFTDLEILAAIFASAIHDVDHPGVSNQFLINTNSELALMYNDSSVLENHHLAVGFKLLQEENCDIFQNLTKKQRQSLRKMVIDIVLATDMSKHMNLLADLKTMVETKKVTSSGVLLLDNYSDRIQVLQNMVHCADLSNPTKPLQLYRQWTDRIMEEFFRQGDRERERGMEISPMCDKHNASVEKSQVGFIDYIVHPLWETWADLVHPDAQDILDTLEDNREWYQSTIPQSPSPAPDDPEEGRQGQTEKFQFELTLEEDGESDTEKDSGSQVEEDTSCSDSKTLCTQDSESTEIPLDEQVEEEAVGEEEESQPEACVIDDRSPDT

[26] = system: Mus musculus; test: Reduction of insulin level in ob/ob mouse at 100 mg/kg, po administered by subchronic dosing for 4 days (RVb 23 ng/mL); type: functional; parameters: scale not given: the % may be the effect or the level left
[27] = system: Mus musculus; test: Reduction of glucose level in ob/ob mouse at 250 mg/kg, po administered by subchronic dosing for 4 days (RVb 406 mg/dl); type: functional; parameters: scale not given: the % may be the effect or the level left
[28] = system: Mus musculus; test: Reduction of insulin level in ob/ob mouse at 500 mg/kg, po administered by subchronic dosing for 4 days (RVb 23 ng/mL); type: functional; parameters: scale not given: the % may be the effect or the level left
[29] = system: Mus musculus; test: Reduction of body weight in ob/ob mouse at 500 mg/kg, po administered by subchronic dosing for 4 days (RVb 44 g); type: functional; parameters: scale not given: the % may be the effect or the level left
[30] = system: Mus musculus; test: Reduction of glucose level in ob/ob mouse at 500 mg/kg, po administered by subchronic dosing for 4 days (RVb 406 mg/dl); type: functional; parameters: scale not given: the % may be the effect or the level left
[31] = system: Mus musculus; test: Reduction of body weight in ob/ob mouse at 250 mg/kg, po administered by subchronic dosing for 4 days (RVb 44 g); type: functional; parameters: scale not given: the % may be the effect or the level left
[32] = system: Mus musculus; test: Reduction of glucose level in ob/ob mouse at 100 mg/kg, po administered by subchronic dosing for 4 days relative to control (RVb 406 mg/dl); type: functional; parameters: scale not given: the % may be the effect or the level left
[33] = system: Mus musculus; test: Reduction of body weight in ob/ob mouse at 100 mg/kg, po administered by subchronic dosing for 4 days (RVb 44 g); type: functional; parameters: scale not given: the % may be the effect or the level left
[34] = system: Mus musculus; test: Reduction of insulin level in ob/ob mouse at 250 mg/kg, po administered by subchronic dosing for 4 days (RVb 23 ng/mL); type: functional; parameters: scale not given: the % may be the effect or the level left
[35] = Apparent permeability across MDCK cells; settings: dog

Dual specificity calcium/calmodulin-dependent 3',5'-cyclic nucleotide phosphodiesterase 1A, sequence (P54750 whole entry): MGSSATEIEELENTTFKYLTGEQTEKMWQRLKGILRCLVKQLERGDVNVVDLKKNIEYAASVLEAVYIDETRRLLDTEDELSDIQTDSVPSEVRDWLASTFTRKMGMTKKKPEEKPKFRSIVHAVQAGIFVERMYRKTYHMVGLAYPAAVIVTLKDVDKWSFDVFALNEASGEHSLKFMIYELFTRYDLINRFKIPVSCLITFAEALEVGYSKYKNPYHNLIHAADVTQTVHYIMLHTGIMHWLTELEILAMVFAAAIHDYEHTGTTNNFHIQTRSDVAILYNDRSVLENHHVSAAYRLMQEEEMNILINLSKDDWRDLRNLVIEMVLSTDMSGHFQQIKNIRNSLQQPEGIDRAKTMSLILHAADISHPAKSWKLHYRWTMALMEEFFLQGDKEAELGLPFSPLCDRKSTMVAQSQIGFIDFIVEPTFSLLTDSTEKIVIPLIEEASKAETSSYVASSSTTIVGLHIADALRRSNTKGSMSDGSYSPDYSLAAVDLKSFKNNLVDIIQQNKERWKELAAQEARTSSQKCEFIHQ

IC50 [1]: > 10000 nM
IC50 [2]: > 1000 nM
IC50 ([3]; Mus musculus, Plasma): > 1000 nM
IC50 [4]: > 1000 nM
IC50 [5]: > 10000 nM
IC50 [6]: > 1000 nM
IC50 [7]: > 1000 nM
IC50 [8]: > 1000 nM
IC50 [9]: > 1000 nM
IC50 [10]: > 1000 nM
IC50 [11]: > 10000 nM
IC50 [12]: > 1000 nM
IC50 [13]: > 1000 nM
IC50 ([14]; Mus musculus, Plasma): > 1000 nM
Vd [15]: 0.12 L/kg
IC50 [16]: > 1000 nM
IC50 [17]: > 1000 nM
IC50 [18]: > 1000 nM
IC50 [19]: > 1000 nM
bioavailability [20]: 100%
IC50 [21]: 370 nM
IC50 ([22]; Mus musculus, Plasma): > 1000 nM
clearance [23]: 19.8 mL/min/kg
IC50 [24]: 7 nM
IC50 [25]: > 1000 nM
SMILES: CC(C)c1n[nH]c2c(=O)[nH]c(C[C@@H]3CCCC[C@H]3Nc3ncc(C(=O)O)c(C(F)(F)F)n3)nc12

IC50 [1]: 3900 nM
IC50 [2]: > 10000 nM
Cp(f) ([3]; mouse, in vivo, po, 500 mg/kg, 3 h): 361 nM
IC50 [4]: > 10000 nM
IC50 [5]: 1130 nM
IC50 [6]: > 10000 nM
IC50 [7]: > 10000 nM
IC50 [8]: 8200 nM
IC50 [9]: > 10000 nM
IC50 [10]: > 10000 nM
IC50 [11]: 4950 nM
IC50 [12]: > 10000 nM
IC50 [13]: > 10000 nM
Cp(f) ([14]; mouse, in vivo, po, 250 mg/kg, 3 h): 243 nM
IC50 [16]: > 10000 nM
IC50 [17]: > 10000 nM
IC50 [18]: > 10000 nM
IC50 [19]: > 10000 nM
IC50 [21]: 5200 nM
Cp(f) ([22]; mouse, in vivo, po, 100 mg/kg, 3 h): 140 nM
IC50 [24]: 41 nM
IC50 [25]: > 10000 nM
SMILES: CC(C)c1n[nH]c2c(=O)[nH]c(Cc3ccccc3OCCN3CCOCC3)nc12
Activity [26]: -35%
Activity [27]: -40%
Activity [28]: -59%
Activity [29]: -11%
Activity [30]: -55%
Activity [31]: -6.4%
Activity [32]: -32%
Activity [33]: -4.3%
Activity [34]: -35%

IC50 [1]: 790 nM
IC50 [5]: 970 nM
IC50 [11]: 7810 nM
IC50 [24]: 530 nM
SMILES: CC(C)c1nn(C)c2c(=O)[nH]c(Cc3ccccc3OCCN3CCOCC3)nc12

IC50 [1]: 54 nM
IC50 [5]: 4 nM
IC50 [11]: 38 nM
SMILES: CC(C)c1n[nH]c2c(=O)[nH]c(Cc3cccc(Cl)c3)nc12

IC50 [1]: > 10000 nM
IC50 [5]: > 10000 nM
IC50 [11]: > 10000 nM
IC50 [24]: 36 nM
SMILES: CC(C)c1n[nH]c2c(=O)[nH]c(C[C@@H]3CCCC[C@H]3NC(=O)CN3CCCC3)nc12

IC50 [1]: > 10000 nM
IC50 [5]: 7600 nM
IC50 [11]: > 10000 nM
IC50 [24]: 23 nM
SMILES: Cc1ccc(N[C@@H]2CCCC[C@H]2Cc2nc3c(C(C)C)[nH]nc3c(=O)[nH]2)nn1

IC50 [1]: > 10000 nM
IC50 [5]: 3100 nM
IC50 [11]: > 10000 nM
IC50 [24]: 19 nM
SMILES: CC(C)c1[nH]nc2c(=O)[nH]c(C[C@@H]3CCCC[C@H]3NC(=O)CC3CCOCC3)nc12

IC50 [1]: 2500 nM
IC50 [5]: 520 nM
Papp [35]: 10.8 ×10⁻⁶ cm/s
IC50 [11]: 2650 nM
IC50 [24]: 56 nM
SMILES: CC(C)c1n[nH]c2c(=O)[nH]c(Cc3ccccc3OC(F)(F)F)nc12

IC50 [1]: > 10000 nM
IC50 [5]: 4200 nM
Papp [35]: 0.7 ×10⁻⁶ cm/s
IC50 [11]: > 10000 nM
IC50 [24]: 46 nM
SMILES: CC(C)c1[nH]nc2c(=O)[nH]c(C[C@@H]3CCCC[C@H]3NC(=O)NCCCN3CCOCC3)nc12

IC50 [1]: 7700 nM
IC50 [2]: 8400 nM
IC50 [4]: > 10000 nM
IC50 [5]: 4400 nM
IC50 [6]: > 10000 nM
IC50 [7]: > 10000 nM
IC50 [8]: > 10000 nM
IC50 [9]: > 10000 nM
IC50 [10]: > 10000 nM
IC50 [11]: 9800 nM
IC50 [12]: > 10000 nM
IC50 [13]: > 10000 nM
IC50 [16]: > 10000 nM
IC50 [17]: > 10000 nM
IC50 [18]: > 10000 nM
IC50 [19]: > 10000 nM
IC50 [21]: 1500 nM
IC50 [24]: 35 nM
IC50 [25]: > 10000 nM
SMILES: CC(C)c1n[nH]c2c(=O)[nH]c(C[C@@H]3CCCC[C@H]3Nc3ncccn3)nc12

IC50 [1]: 1430 nM
IC50 [5]: 1340 nM
IC50 [11]: 2630 nM
IC50 [24]: 82 nM
SMILES: CC(C)c1n[nH]c2c(=O)[nH]c(Cc3ccccc3OCc3ccccc3)nc12

IC50 [1]: > 10000 nM
IC50 [5]: 2050 nM
IC50 [11]: > 10000 nM
IC50 [24]: 87 nM
SMILES: CC(C)c1n[nH]c2c(=O)[nH]c(C[C@@H]3CCCC[C@H]3OCCN3CCOCC3)nc12
